We go through five compounds from patent US20120238554A1, “SALTS OF POTASSIUM ATP CHANNEL OPENERS AND USES THEREOF” (priority 2007, published 2012).

Data set [1] is described as follows: Form conversion and degradation under thermal stress (60° C.). The method, then: Studies were also conducted to evaluate the likelihood for conversion and degradation under thermal stress.
The test system of data set [2] is hypertriglyceridemic patients. Description: Crossover of formulations U and K′ (435 mg/day diazoxide choline): lipid responses. The class given is in vivo, human. To be noted: 15 days, 435 mg/day diazoxide choline once daily. The method, then: A clinical study was conducted in 12 hypertriglyceridemic patients. […] Treatment continued for 16 days. The endpoint of the study was percentage change from baseline to day 15 of triglycerides, total cholesterol, LDL cholesterol, HDL cholesterol and non-HDL cholesterol. Lipid parameters were measured at baseline and on days 7 and 15. Blood pressure was collected at multiple time points.

Data set [3] has as its system healthy volunteers. The method, then: (§1) A randomized double-blind, placebo-controlled clinical trial was conducted in 24 healthy volunteers. They were randomized in a 2:1 ratio of treated to placebo. […] The dose was administered once per day in the morning for a period of 7 days. A number of lipid parameters were measured at baseline and again on day 7 including fasting triglycerides, total cholesterol, LDL cholesterol, HDL cholesterol, and non-HDL cholesterol. Additionally, blood pressure was measured on a daily basis.

For data set [4], the system named is healthy volunteers. The method, then: as §1
In PK008, the dose was administered as one and one ½ tablet formulation K′.
The source holds these as a separate data set.

The conditions of data set [5]: mouse, in vivo; for AUC0-6: 50 mg/kg.
Protocol: The study used 4 mice dosed per treatment arm. Following, a single intravenous or oral dose, administered by gavage, pharmacokinetic samples were collected at 4 time points: 0.5, 1, 3, and 6 hours post-dosing. Two mice were sampled at each timepoint, with each mouse contributing samples to two timepoints. Each test drug was administered as a 50 mg/kg dose, which yields nearly equal molar concentrations. […] Blood samples were collected into tubes containing dipotassium EDTA as the anticoagulant and placed on ice packs until centrifugation (at 3000 rpm for 10 minutes at 4° C.). After centrifugation, samples were stored at −70° C. until they were thawed for analysis. Circulating drug levels were measured using a precise and reproducible LC-MS/MS assay.
In data set [6] the test system is hypertriglyceridemic patients. The method, then: A clinical study was conducted in 12 hypertriglyceridemic patients. […] After day 8 they were crossed over from one formulation to the other formulation. […] The endpoint of the study was percentage change from baseline to day 15 of triglycerides, total cholesterol, LDL cholesterol, HDL cholesterol and non-HDL cholesterol. Lipid parameters were measured at baseline and on days 7 and 15. Blood pressure was collected at multiple time points.

For data set [7] the following is noted: pH 2.
Protocol: Solubility concentrations were determined using area-percent calculations with HPLC calibration curves.
The nature of data set [8]: Moisture sorption analysis. Type of data set: physicochemical. The method, then: Moisture Sorption Analysis was performed with a Hiden IGAsorp Moisture Sorption Instrument, Samples were first dried at 0% relative humidity at 25° C. until an equilibrium weight was reached, or for a maximum of 4 hours. Samples were then subjected to an isothermal (25° C.) scan from 10-90% relative humidity in steps of 10%. The samples were allowed to equilibrate to an asymptotic weight at each point for a maximum of 4 hours. Following absorption, a desorption scan from […] relative humidity (at 25° C.) was run in steps of −10%, again allowing a maximum of 4 hours for the samples to equilibrate. The resulting samples after desorption were dried at 80° C. for two hours and analyzed by XRPD.

Data set [9] can be described thus: Slurry studies of inter-conversion of the solid form. To be noted: n-heptane, dichloromethane; for inter-conversion of the solid form in slurry: room temperature, 7 and 14 days, toluene (Table 16 Form B: CH2Cl2, THF, t-AmOH).
Data set [10] deals with high-fructose diet rats. The settings on record: rat, in vivo; cited from earlier work.
Data set [11] has as its system Zucker rats. To be noted: oral 1-10 mg/kg/day, 14 days; cited from earlier work.
The test system of data set [12] is obese Zucker rats. The settings on record: 5 mg/kg/day, cited from earlier work.
Data set [13] is described as follows: Polymorph screening crystallizations and characterization of forms (XRPD, DSC, TGA). The class given is physicochemical. The method, then: DSC analysis were conducted with a Mettler 822 DSC, by measuring the amount of energy released by a sample, as the sample was heated from 30° C. to between 300-500° C. at a rate of 10° C./min. Typical applications of DSC analysis include determination of melting point temperature and the heat of melting; measurement of the glass transition temperature; curing and crystallization studies; and identification of phase transformations.
TGA measurements were conducted with a Mettler 851 SDTA/TGA, by measuring weight loss as a function of increasing temperature, as the samples were heated from 30° C. to 230° C. at a rate of 10° C./min. The TCA can be used to analyze desorption and decomposition behavior, characterize oxidation behavior, set burnout or conditioning parameters (temperature/ramp rate/time), and determine chemical composition.
XRPD samples were analyzed with a Shimadzu XRD-6000 system, using a Cu Kα, 40 kV, 40 mA X-ray tube. The divergence and scatter slits were 1.00 deg, and the receiving slit was 0.30 mm. Samples were continuously scanned at a range of 3.0-45.0 deg, with a step size of 0.04 deg., at a scan rate of 2 deg/min.
After hot filtration the vials were placed in a refrigerator (4° C.) for 16 hours. […] All solids were dried in vacuo at ambient temperature and 30 in. Hg.
After hot filtration the vials were then slowly cooled to room temperature at the rate of 20° C./h and stirred at room temperature for 1-2 hours. All solids were dried in vacuo at ambient temperature and 30 in. Hg.
Solvents for crystallizations were chosen based on the solubility screen summarized below.

Data set [14] in a line: Excipient compatibility study for diazoxide choline salt. The class given is physicochemical.
[15] abbreviates: 300 mg diazoxide/day, formulation U.
[16] abbreviates: baseline to day 7, 300 mg diazoxide/day as formulation U.
[17] abbreviates: Study EC004, 435 mg diazoxide choline, 7 days.
[18] abbreviates: Study TR002, 508 mg diazoxide choline, 49 days.
[19] abbreviates: 25° C., listed as Potassium diazoxide salt.

Read-outs that look alike come from different tables or passages of the source.

With `CC1=Nc2ccc(Cl)cc2S(=O)(=O)[N-]1.C[N+](C)(C)CCO` [diazoxide choline], in [1], the “degradation under thermal stress (HPLC gradient area percent)” value is on record as “did not show any significant degradation”; the “form conversion and degradation under thermal stress (XRPD, DSC)” value is given as “consistent with the starting material, as well as the presence of additional unique peaks”. In addition, in [2], the HDL cholesterol entry is recorded as “marked increase”; the “triglycerides, total cholesterol, LDL cholesterol and nonHDL cholesterol” value was “marked reductions”. In data set [3] (300 mg diazoxide/day, 7 days), the “HDL cholesterol, Percent change from base-line” value stood at 8.2%; the “LDL cholesterol, Percent change from base-line” value is recorded as −5.4%; the “Total cholesterol, Percent change from base-line” value is −2.3%; the “Triglycerides, Percent change from base-line” value is on record as −13.2%. In addition, in data set [3] (300 mg diazoxide/day, 7 days), the “non-HDL cholesterol, Percent change from base-line” value is −6.3%. For the same compound, in data set [3] (setting [15]), the “HDL cholesterol, Baseline mean ± SEM” value came out at 49 ± 3.3 mg/dL; the “HDL cholesterol, Day 7 mean ± SEM” value came out at 53 ± 2.9 mg/dL; the “LDL cholesterol, Baseline mean ± SEM” value was determined as 111 ± 5.8 mg/dL; the “LDL cholesterol, Day 7 mean ± SEM” value worked out at 105 ± 4.9 mg/dL. Besides, in [3] (setting [15]), the “Total cholesterol, Baseline mean ± SEM” value was 175 ± 7.5 mg/dL; the “Total cholesterol, Day 7 mean ± SEM” value is on record as 171 ± 6.4 mg/dL; the “Triglycerides, Baseline mean ± SEM” value came out at 76 ± 7.8 mg/dL; the “Triglycerides, Day 7 mean ± SEM” value stood at 66 ± 3.9 mg/dL. In [3] (setting [15]), the “non-HDL cholesterol, Baseline mean ± SEM” value is recorded as 126 ± 6.6 mg/dL and the “non-HDL cholesterol, Day 7 mean ± SEM” value came to 118 ± 5.5 mg/dL. For the same compound, in data set [3] (setting [16]), the “increase HDL cholesterol” value is 8.2%; the “reduction in total cholesterol, LDL cholesterol and non-HDL cholesterol versus placebo arm” value is “reduction in the diazoxide choline treated arm was greater”; the reduction of triglycerides is recorded as 13.2%. In data set [4] (7 days, 300 mg diazoxide/day as formulation U, healthy volunteers), the “reduction in diastolic blood pressure” value was 6.2 mmHg. Also, in data set [4] (setting [17]), the “Diastolic blood pressure, Baseline” value was determined as 69.4 mmHg; the “Diastolic blood pressure, End of treatment” value is listed as 63.2 mmHg; the “Systolic blood pressure, Baseline” value is 113.2 mmHg; the “Systolic blood pressure, End of treatment” value was 113.5 mmHg. In data set [4] (setting [18]), the “Diastolic blood pressure, Baseline” value came to 77.7 mmHg; the “Diastolic blood pressure, End of treatment” value worked out at 67.0 mmHg; the “Systolic blood pressure, Baseline” value is recorded as 118.1 mmHg; the “Systolic blood pressure, End of treatment” value was 117.0 mmHg. This compound also had an Absolute oral bioavailability in data set [5] of 100%. For the same compound, the AUC0-6 in data set [5] (iv) came out at 137.176 µg·h/mL. In data set [5] (po), this compound displayed an AUC0-6 of 141.26 µg·h/mL. For the same compound, the “average drop in standing blood pressure” value in data set [6] (7 days of treatment) is listed as roughly 8 mmHg. Besides, the “standing diastolic blood pressure” value in data set [6] (after 7 days of treatment, baseline 80) was 75.5 mmHg. In addition, the “standing systolic blood pressure” value in [6] (after 7 days of treatment, baseline 123) worked out at 112 mmHg. Besides, the “supine diastolic blood pressure” value in [6] (after seven days of treatment, baseline 69) was determined as 62.5 mmHg. For the same compound, in [6] (after seven days of treatment, baseline 121), the “supine systolic blood pressure” value turned out to be 116 mmHg. The “average drop in supine blood pressure” value in [6] (seven days of treatment) was roughly 6 mmHg. Besides, in data set [7], the “solid form after the solubility analysis (XRPD)” value is recorded as “changed back to the free form diazoxide”. In [8] (25° C.), the “hydrate formation (hysteresis upon desorption)” value is recorded as “does not form a stable hydrate”. In data set [8] (25° C., listed as Choline diazoxide salt), the “Moisture Sorption (hygroscopicity)” value is “deliquescent -”. In addition, the “Moisture Sorption (hygroscopicity)” value in [8] (25° C., listed as choline salt of diazoxide) was “hygroscopic”. Further, the moisture absorbed entry in [8] (80% relative humidity, 25° C.) was “over 28%”. Also, the “crystalline form after moisture sorption/desorption (XRPD)” value in data set [8] (listed as choline salt of diazoxide) is listed as “changed to an alternate crystalline form”. The “inter-conversion of the solid form in slurry” value in data set [9] (listed as Choline Diazoxide Salt) is “no propensity of inter-conversion”.

In the case of `N#CNC(=NCCc1ccccc1Cl)c1cncc(N)c1` [KRN4884], in [10], the “Hepatic triglyceride lipase activity” value is reported as “not affected” and the “lipoprotein lipase (LPL) activity in muscle” value is given as “significantly increased”. In data set [11], the “serum insulin and glucose levels” value was “no change”; the serum triglyceride levels result was “dose dependently reduce”.

As to `Cl.N#CN=C(Nc1ccc(N)nc1)N[C@@H]1C[C@@H]2CC[C@H]1C2` [AL0671, (+)—N-(6-amino-3-pyridil)-N′-[(1S,2R,4R)-bicyclo-[2.2.1]hept-2-yl]-N″-cyanoguanidine hydrochloride], the “serum total triglyceride, chylomicron and very-low-density lipoprotein levels” value in [12] (1 or 2 weeks) was “significantly decrease”. For the same compound, in data set [12] (postheparin plasma), the “increase of hepatic triglyceride lipase activities” value was 3 fold and the “increase of lipoprotein lipase activities” value is recorded as 4 fold.

For `CC1=NS(=O)(=O)c2cc(Cl)ccc2[N-]1.[K+]` [potassium salt of diazoxide], the “degradation under thermal stress (HPLC gradient area percent)” value in data set [1] (60° C., 14 days) is on record as “did not show any significant degradation”. In addition, in [1] (60° C., closed, protected from light, 7 and 14 days), the “form conversion and degradation under thermal stress (XRPD, DSC)” value is “showed unique peaks”. In addition, the “solid form after the solubility analysis (XRPD)” value in data set [7] is “changed back to the free form diazoxide”. The “crystalline form after moisture sorption/desorption (XRPD)” value in data set [8] is reported as “changed to an alternate crystalline form”. The “Moisture Sorption (hygroscopicity)” value in data set [8] (25° C.) is “hygroscopic”; in data set [8] (setting [19]), “deliquescent -”. Besides, the “hydrate formation (hysteresis upon desorption)” value in data set [8] (25° C.) was “hemihydrate from 0-30% RH and a monohydrate from 35-75% RH”; in [8] (setting [19]) it was “hemi/monohydrate”. For the same compound, the water absorbed in data set [8] (60% RH, 25° C.) worked out at 5.4 wt %; in [8] (90% RH, 25° C.), 38.3 wt %. The Form entry in [13] (Table 26, slow cooling, Water) is listed as “Free form”; in [13] (Table 30, single solvent, fast-cooling, MeCN), “C + D”. Moreover, the “degradation after slurry study (HPLC gradient area percent)” value in [9] (toluene, 14 days) is given as “did not show any significant degradation”. Moreover, the “inter-conversion of the solid form in slurry” value in data set [9] is “no propensity of inter-conversion”.

`CC1=Nc2ccc(Cl)cc2S(=O)(=O)N1` [Diazoxide Control]: the figures for the “diazoxide choline salt assayed in mixture with excipient” value in data set [14] (1 Month 40° C./75% RH) and in data set [14] (1 Month 50° C.) were 99.0 % (w/w) and 99.4 % (w/w), respectively.
